Measured values taken from PubChem BioAssay (NCI).
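Exposure lasted 48 hours, with cells grown in 96-well plates and compounds tested at five concentrations. GI50 is the concentration that inhibits growth by half. The concentration for full growth arrest is given as TGI.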 Where a SMILES comes first, the peptide text is derived from it.

How the values were obtained:
Assay in all cases: inhibition of tumour cell growth, NCI panel, 48 h
MOLT-4 leukemia = tested on: MOLT-4 leukemia
HCT-116 colon = tested on: HCT-116 colon
MALME-3M melanoma = tested on: MALME-3M melanoma
IGROV1 ovarian = tested on: IGROV1 ovarian
SF-268 CNS = tested on: SF-268 CNS
CCRF-CEM leukemia = tested on: CCRF-CEM leukemia
PC-3 prostate = tested on: PC-3 prostate
HL-60(TB) leukemia = tested on: HL-60(TB) leukemia
SNB-19 CNS = tested on: SNB-19 CNS
COLO 205 colon = tested on: COLO 205 colon

SMILES	GI50 (MOLT-4 leukemia)	TGI (MOLT-4 leukemia)	GI50 (HCT-116 colon)	TGI (HCT-116 colon)	GI50 (MALME-3M melanoma)	TGI (MALME-3M melanoma)	GI50 (IGROV1 ovarian)	TGI (IGROV1 ovarian)	GI50 (SF-268 CNS)	TGI (SF-268 CNS)	GI50 (CCRF-CEM leukemia)	TGI (CCRF-CEM leukemia)	GI50 (PC-3 prostate)	TGI (PC-3 prostate)	GI50 (HL-60(TB) leukemia)	TGI (HL-60(TB) leukemia)	TGI (SNB-19 CNS)	TGI (COLO 205 colon)	GI50 (SNB-19 CNS)	GI50 (COLO 205 colon)
Cc1ccc(C2=C(c3ccccc3)C(c3ccccc3)Oc3ccc(C)cc32)cc1 (stereo not drawn)	8.86 µM	31.5 µM	1.68 µM	3.43 µM	23.1 µM	48.3 µM	2.49 µM	7.1 µM	13.2 µM	38.7 µM	13.8 µM	39 µM	12.8 µM	34.4 µM	11 µM	40.7 µM	–	–	–	–
CCCCN[C@H]1C2C3CC4C5CC(C42)C1(C)C53 (stereo partly drawn)	–	> 100 µM	–	> 100 µM	–	> 100 µM	–	> 100 µM	–	> 100 µM	–	> 100 µM	–	–	–	> 100 µM	> 100 µM	> 100 µM	–	–
COc1ccc(/C=c2/sc3n(c2=O)NC2(CCC(C)CC2)NN=3)cc1 (stereo not drawn)	–	> 100 µM	–	> 100 µM	–	> 100 µM	–	> 100 µM	–	> 100 µM	–	> 100 µM	–	–	–	–	> 100 µM	> 100 µM	–	–
CCC(C)C1NC(=O)C2CCCN2C(=O)CNC(=O)C(C)NC(=O)C(Cc2ccccc2)NC(=O)C(C(C)C)NC1=O (stereo not drawn) (cyclo(GPIVFA); configuration not given here)	–	> 100 µM	–	> 100 µM	–	> 100 µM	–	> 100 µM	–	> 100 µM	–	–	–	–	–	–	> 100 µM	> 100 µM	–	–
O=C(Nc1cc(Cl)cc(Cl)c1)/C(Cc1nc2ccccc2[nH]c1=O)=N/NC(=O)c1ccncc1	–	> 100 µM	–	> 100 µM	–	> 100 µM	–	> 100 µM	–	–	–	> 100 µM	–	–	–	> 100 µM	> 100 µM	> 100 µM	–	–
CC1C[C@]2(C[C@@H](C)C(=O)O2)O[C@@H]2CC3(C)[C@@H]4CCC5C(C)(C)OC(=O)C[C@H]6OO[C@]4(CC[C@]3(C)C12)CC56O (stereo partly drawn)	–	–	–	–	–	> 100 µM	–	> 100 µM	–	–	–	–	–	–	–	> 100 µM	> 100 µM	–	–	–
CNS(=O)(=O)NN(C)S(=O)(=O)c1ccc2ccccc2c1	–	> 100 µM	–	> 100 µM	–	> 100 µM	–	> 100 µM	–	–	–	> 100 µM	–	–	–	> 100 µM	–	> 100 µM	–	–
Cc1ccn2c(CCc3nnc4cc(C)ccn34)nnc2c1	–	> 100 µM	–	> 100 µM	–	> 100 µM	–	> 100 µM	–	> 100 µM	–	–	–	> 100 µM	–	0.623 µM	> 100 µM	> 100 µM	–	–
O=S(=O)([O-])[O-].[Cl-].[NH2-].[NH2-].[NH2-].[NH2-].[Ru+3].c1ccncc1	–	> 100 µM	–	> 100 µM	–	> 100 µM	–	> 100 µM	–	> 100 µM	–	> 100 µM	–	–	–	> 100 µM	–	> 100 µM	–	–
C#CC1(O)c2ccccc2C(=O)c2ccccc21	–	> 100 µM	–	> 100 µM	–	> 100 µM	–	> 100 µM	–	> 100 µM	–	> 100 µM	–	–	–	> 100 µM	> 100 µM	> 100 µM	–	–
CCOC(=O)[C@H]1Nc2ccc([N+](=O)[O-])cc2C2c3ccccc3CC21 (stereo partly drawn)	–	69.1 µM	–	37.9 µM	–	68 µM	–	> 100 µM	–	38.5 µM	–	43.8 µM	–	–	–	–	> 100 µM	> 100 µM	–	–
CCCNC(=O)c1ccc(Cl)cc1Cl	> 100 µM	> 100 µM	> 100 µM	> 100 µM	> 100 µM	> 100 µM	> 100 µM	> 100 µM	> 100 µM	> 100 µM	–	–	> 100 µM	> 100 µM	> 100 µM	> 100 µM	> 100 µM	> 100 µM	> 100 µM	> 100 µM
Cc1cc(N2CCCC2)nc(NCc2cc(Nc3ccnc4cc(Cl)ccc34)ccc2F)n1	–	–	0.198 µM	0.557 µM	–	–	–	–	1.36 µM	3.14 µM	–	–	1.19 µM	2.58 µM	1.99 µM	4.49 µM	–	1.43 µM	–	0.278 µM
CC(CNCCCNCCNCCCNCO)[N+](=O)[O-] (stereo not drawn)	–	30.4 µM	–	22.7 µM	–	4.22 µM	–	44.3 µM	–	29.6 µM	–	11.5 µM	–	–	–	19.1 µM	> 100 µM	19.3 µM	–	–
CC1=C(C(=O)Nc2ccc([N+](=O)[O-])cc2)C(c2ccc3c(c2)OCO3)C(C(=O)Nc2ccc([N+](=O)[O-])cc2)=C(C)N1	–	–	–	> 100 µM	–	> 100 µM	–	> 100 µM	–	> 100 µM	–	–	–	–	–	–	> 100 µM	18.4 µM	–	–
Cc1ccc(-c2cc(=O)c3cc(C)c(C)c(C(=O)O)c3o2)cc1N	–	> 100 µM	–	> 100 µM	–	> 100 µM	–	> 100 µM	–	> 100 µM	–	> 100 µM	–	–	–	–	> 100 µM	> 100 µM	–	–
C[C@]1(Cn2ccnn2)C(C(=O)O)N2C(=O)CC2S1(=O)=O (stereo partly drawn)	–	–	> 100 µM	> 100 µM	> 100 µM	> 100 µM	> 100 µM	> 100 µM	> 100 µM	> 100 µM	–	–	> 100 µM	> 100 µM	> 100 µM	> 100 µM	> 100 µM	> 100 µM	> 100 µM	> 100 µM
C=C1C2CC(OC(C)=O)C3(C)C(c4ccoc4)OC(=O)[C@@H](O)[C@]13OC1C[C@H](OC(C)=O)C(C)(C)[C@H](CC(=O)OC)[C@]12C (stereo partly drawn)	–	> 100 µM	–	> 100 µM	–	–	–	> 100 µM	–	–	–	> 100 µM	–	–	–	> 100 µM	> 100 µM	> 100 µM	–	–
CC12CO[C@@](C)(CC(S(=O)(=O)c3ccccc3)C1)O2 (stereo partly drawn)	–	> 100 µM	–	> 100 µM	–	> 100 µM	–	> 100 µM	–	> 100 µM	–	> 100 µM	–	–	–	> 100 µM	> 100 µM	> 100 µM	–	–
COc1ccc2c(Cl)cc(NC(=O)Nc3c(C)cccc3C)nc2c1	45.9 µM	> 100 µM	5.72 µM	> 100 µM	10.2 µM	58.5 µM	21.9 µM	> 100 µM	39.7 µM	> 100 µM	–	–	24.5 µM	> 100 µM	> 100 µM	> 100 µM	> 100 µM	> 100 µM	72.7 µM	46 µM
COc1ccc(/C(Cl)=C(\c2ccc(OCCN(C)C)cc2)c2ccc(OC(=O)C(C)(C)C)cc2)cc1	–	14.7 µM	–	24.4 µM	–	30 µM	–	32.9 µM	–	28.2 µM	–	24.9 µM	–	–	–	21.1 µM	29.5 µM	26.8 µM	–	–
